Reference: ChEMBL document CHEMBL5653602, “Biochemical characterization of GSK1070916, a potent and selective inhibitor of Aurora B and Aurora C kinases with an extremely long residence time1” (Biochem J, 2009)
Calls of active or inactive are those of the source. The rule behind the calls is not given here.

Key:
[1] = target: T1, Aurora kinase B/Inner centromere protein (Homo sapiens) (UniProt Q96GD4+Q9NQS7)
Description: Binding affinity to human AurB/INCENP assessed as dissociation half life

[2] = target: T1, Aurora kinase B/Inner centromere protein (Homo sapiens); settings: dose 100.0 nM, time 60.0 min
Aurora-C/INCENP [3] = target: T2, Aurora-C/INCENP (Homo sapiens, UniProt Q9NQS7+Q9UQB9); test: Inhibition of human AurC/INCENP in PBS using Biotin-Ahx-RARRRLSFFFFAKKK-NH2 as substrate incubated for 30 mins in presence of ATP; assay type: protein-complex assay
Angiopoietin-1 receptor = Angiopoietin-1 receptor (Homo sapiens, UniProt Q02763); test: Inhibition of TIE2 (unknown origin)
[4] = target: Serine/threonine-protein kinase SIK1 (Homo sapiens, UniProt P57059); test: Inhibition of SIK (unknown origin)
[5] = target: Vascular endothelial growth factor receptor 1 (Homo sapiens, UniProt P17948); test: Inhibition of FLT1 (unknown origin)
[6] = target: T3, Aurora kinase B/Inner centromere protein (Homo sapiens, UniProt Q96GD4); test: Binding affinity to human AurB/INCENP assessed as inhibition constant using aurora sox peptide as substrate incubated for 60 mins in presence of ATP by fluorescence based assay; assay type: protein-complex assay
[7] = target: Aurora-C/INCENP (Homo sapiens) (UniProt Q9UQB9+Q9NQS7); settings: dose 100.0 nM, time 60.0 min
Aurora-C/INCENP [8] = target: T2, Aurora-C/INCENP; test: Binding affinity to human AurC/INCENP assessed as inhibition constant using aurora sox peptide as substrate incubated for 60 mins in presence of ATP by fluorescence based assay; assay type: protein-complex assay
[9] = target: T3, Aurora kinase B/Inner centromere protein; test: Inhibition of human AurB/INCENP in PBS using Biotin-Ahx-RARRRLSFFFFAKKK-NH2 as substrate incubated for 30 mins in presence of ATP; assay type: protein-complex assay
[10] = target: T1, Aurora kinase B/Inner centromere protein (Homo sapiens); settings: dose 100.0 nM, time 60.0 min; remark: listed apart in the source

T2 sequence (Q9UQB9 whole entry): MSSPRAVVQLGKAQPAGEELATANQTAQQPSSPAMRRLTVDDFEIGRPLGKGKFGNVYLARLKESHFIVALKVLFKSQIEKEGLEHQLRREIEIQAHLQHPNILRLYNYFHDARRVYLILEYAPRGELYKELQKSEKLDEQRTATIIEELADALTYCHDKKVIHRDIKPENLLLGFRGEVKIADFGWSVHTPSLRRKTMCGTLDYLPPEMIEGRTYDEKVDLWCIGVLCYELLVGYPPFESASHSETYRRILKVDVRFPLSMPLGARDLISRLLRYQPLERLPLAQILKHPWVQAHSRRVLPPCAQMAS
T2 sequence (Q9NQS7 whole entry): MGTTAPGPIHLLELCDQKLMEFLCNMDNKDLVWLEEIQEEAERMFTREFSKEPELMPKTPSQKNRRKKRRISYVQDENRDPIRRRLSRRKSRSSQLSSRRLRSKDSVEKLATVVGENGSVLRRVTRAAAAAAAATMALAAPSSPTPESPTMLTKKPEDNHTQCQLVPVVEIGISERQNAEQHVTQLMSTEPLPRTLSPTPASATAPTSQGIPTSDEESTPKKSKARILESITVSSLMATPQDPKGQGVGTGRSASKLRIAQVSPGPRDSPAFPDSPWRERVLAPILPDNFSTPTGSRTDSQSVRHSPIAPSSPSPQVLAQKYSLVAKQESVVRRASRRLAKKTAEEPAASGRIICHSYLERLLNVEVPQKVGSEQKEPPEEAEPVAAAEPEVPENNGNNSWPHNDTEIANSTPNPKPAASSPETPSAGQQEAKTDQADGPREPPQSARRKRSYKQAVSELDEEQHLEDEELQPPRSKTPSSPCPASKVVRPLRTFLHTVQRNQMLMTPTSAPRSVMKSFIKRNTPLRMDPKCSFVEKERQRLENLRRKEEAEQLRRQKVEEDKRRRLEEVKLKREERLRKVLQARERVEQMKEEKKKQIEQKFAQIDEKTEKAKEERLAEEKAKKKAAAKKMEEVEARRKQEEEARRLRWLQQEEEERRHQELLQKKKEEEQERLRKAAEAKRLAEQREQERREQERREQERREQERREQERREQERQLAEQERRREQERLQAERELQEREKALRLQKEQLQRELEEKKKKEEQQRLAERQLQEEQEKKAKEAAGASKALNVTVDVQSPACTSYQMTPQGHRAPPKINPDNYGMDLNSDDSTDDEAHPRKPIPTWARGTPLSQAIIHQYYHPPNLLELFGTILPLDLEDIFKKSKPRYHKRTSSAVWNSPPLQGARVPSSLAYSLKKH
T3 sequence (Q96GD4 whole entry): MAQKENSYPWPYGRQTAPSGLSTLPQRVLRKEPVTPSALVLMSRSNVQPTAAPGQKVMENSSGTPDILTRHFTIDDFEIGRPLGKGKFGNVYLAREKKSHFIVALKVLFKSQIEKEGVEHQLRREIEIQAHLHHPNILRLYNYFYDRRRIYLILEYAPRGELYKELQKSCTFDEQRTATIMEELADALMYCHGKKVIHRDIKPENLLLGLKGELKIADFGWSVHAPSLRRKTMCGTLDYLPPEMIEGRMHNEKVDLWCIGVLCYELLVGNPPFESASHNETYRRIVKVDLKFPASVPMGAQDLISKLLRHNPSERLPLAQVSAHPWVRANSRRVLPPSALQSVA
T3 sequence (Q9NQS7 whole entry, further chain): as the sequence (Q9NQS7 whole entry) above
Chain of Angiopoietin-1 receptor (Q02763 whole entry): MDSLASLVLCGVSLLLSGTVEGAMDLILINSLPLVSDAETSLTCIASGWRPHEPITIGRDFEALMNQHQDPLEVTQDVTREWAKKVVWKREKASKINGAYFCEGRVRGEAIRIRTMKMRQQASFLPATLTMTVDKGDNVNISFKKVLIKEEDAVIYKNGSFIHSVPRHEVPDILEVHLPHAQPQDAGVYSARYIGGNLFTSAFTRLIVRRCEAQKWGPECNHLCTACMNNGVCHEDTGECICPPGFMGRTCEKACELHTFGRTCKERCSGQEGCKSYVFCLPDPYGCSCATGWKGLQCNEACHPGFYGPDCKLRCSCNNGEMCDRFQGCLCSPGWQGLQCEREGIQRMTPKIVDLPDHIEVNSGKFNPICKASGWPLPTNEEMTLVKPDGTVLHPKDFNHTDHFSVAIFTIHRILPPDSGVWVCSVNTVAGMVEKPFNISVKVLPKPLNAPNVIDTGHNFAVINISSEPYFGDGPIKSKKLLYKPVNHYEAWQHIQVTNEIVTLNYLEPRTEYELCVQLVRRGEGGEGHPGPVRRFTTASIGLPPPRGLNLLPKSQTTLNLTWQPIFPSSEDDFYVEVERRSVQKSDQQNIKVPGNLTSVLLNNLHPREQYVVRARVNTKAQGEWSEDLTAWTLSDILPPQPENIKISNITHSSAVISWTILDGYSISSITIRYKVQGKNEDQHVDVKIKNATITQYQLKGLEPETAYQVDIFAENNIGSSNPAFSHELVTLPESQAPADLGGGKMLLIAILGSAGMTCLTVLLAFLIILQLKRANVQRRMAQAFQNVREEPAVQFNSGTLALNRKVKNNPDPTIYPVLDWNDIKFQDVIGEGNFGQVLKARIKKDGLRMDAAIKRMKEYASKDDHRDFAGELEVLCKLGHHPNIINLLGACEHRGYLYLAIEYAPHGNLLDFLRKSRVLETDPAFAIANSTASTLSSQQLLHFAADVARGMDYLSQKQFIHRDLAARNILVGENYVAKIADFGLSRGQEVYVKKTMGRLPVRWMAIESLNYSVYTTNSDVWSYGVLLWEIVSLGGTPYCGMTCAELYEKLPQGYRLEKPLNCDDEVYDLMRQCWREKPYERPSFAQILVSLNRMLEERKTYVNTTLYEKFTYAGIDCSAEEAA
Chain of Serine/threonine-protein kinase SIK1 (P57059 whole entry): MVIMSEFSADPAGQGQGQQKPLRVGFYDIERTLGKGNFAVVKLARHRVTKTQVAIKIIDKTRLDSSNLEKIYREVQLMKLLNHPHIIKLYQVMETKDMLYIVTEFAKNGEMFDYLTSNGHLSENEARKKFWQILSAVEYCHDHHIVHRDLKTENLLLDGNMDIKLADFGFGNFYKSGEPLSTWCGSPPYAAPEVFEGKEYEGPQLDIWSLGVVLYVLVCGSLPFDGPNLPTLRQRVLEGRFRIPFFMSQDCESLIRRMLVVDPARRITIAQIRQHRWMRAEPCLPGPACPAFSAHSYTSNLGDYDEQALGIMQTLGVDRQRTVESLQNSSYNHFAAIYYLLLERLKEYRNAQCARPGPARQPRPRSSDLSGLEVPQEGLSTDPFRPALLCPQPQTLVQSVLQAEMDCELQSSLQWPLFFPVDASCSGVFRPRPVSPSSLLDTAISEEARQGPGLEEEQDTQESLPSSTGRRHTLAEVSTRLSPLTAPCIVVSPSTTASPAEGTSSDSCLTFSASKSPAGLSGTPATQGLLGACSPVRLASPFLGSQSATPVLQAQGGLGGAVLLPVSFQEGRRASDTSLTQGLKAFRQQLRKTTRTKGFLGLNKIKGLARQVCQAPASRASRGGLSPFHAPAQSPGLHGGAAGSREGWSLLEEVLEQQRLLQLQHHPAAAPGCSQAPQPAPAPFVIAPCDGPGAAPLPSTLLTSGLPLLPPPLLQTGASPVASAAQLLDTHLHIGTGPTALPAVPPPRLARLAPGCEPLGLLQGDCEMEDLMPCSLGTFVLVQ
Chain of Vascular endothelial growth factor receptor 1 (P17948 whole entry): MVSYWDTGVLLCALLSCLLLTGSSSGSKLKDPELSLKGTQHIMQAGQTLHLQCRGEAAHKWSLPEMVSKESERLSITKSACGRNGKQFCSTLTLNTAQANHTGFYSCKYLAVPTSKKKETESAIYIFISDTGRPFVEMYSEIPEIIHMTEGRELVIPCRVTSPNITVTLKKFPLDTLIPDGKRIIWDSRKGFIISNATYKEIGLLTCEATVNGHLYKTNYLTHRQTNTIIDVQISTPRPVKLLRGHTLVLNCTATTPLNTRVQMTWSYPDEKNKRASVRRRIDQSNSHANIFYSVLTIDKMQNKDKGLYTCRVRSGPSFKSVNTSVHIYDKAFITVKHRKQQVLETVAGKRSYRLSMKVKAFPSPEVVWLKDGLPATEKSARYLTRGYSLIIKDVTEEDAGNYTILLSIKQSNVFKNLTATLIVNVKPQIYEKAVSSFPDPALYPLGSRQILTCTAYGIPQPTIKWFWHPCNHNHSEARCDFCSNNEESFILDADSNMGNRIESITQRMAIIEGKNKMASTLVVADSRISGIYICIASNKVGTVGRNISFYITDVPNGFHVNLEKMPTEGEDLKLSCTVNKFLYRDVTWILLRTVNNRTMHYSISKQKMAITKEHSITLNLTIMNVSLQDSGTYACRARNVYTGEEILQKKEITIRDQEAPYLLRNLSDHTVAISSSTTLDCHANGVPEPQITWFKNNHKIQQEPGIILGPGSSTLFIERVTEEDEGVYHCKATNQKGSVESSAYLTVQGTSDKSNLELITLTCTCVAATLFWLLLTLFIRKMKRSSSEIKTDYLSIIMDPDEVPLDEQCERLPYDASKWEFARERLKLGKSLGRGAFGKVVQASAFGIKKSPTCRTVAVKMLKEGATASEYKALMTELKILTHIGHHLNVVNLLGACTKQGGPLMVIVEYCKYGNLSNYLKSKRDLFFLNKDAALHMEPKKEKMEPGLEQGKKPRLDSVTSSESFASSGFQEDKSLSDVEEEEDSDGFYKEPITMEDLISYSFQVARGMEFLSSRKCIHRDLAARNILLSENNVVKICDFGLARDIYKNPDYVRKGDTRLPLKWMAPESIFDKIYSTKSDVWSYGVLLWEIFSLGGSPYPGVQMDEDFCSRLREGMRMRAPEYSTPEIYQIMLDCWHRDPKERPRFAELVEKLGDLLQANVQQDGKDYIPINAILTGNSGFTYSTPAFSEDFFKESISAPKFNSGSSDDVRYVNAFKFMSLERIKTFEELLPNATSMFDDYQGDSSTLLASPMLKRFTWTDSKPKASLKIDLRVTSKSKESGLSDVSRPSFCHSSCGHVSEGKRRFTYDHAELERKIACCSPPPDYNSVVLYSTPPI

Compound CCN(CCCOc1ccc2c(Nc3cc(CC(=O)Nc4cccc(F)c4)[nH]n3)ncnc2c1)CCOP(=O)(O)O has a T1/2 [1] of 15 min.

Compound Cc1cc(Nc2cc(N3CCN(C)CC3)nc(Sc3ccc(NC(=O)C4CC4)cc3)n2)n[nH]1 has a T1/2 [1] of 25 min.

With CCn1cc(-c2ccnc3[nH]c(-c4cccc(CN(C)C)c4)cc23)c(-c2ccc(NC(=O)N(C)C)cc2)n1 [GSK-1070916] the inhibition [2] was “Active”, the IC50 (Aurora-C/INCENP [3]) was 6.5 nM and the IC50 (Angiopoietin-1 receptor) was 59 nM. It also gave an IC50 [4] of 70 nM, an IC50 [5] of 42 nM and a Ki [6] of 0.38 nM. The T1/2 [7] was 270 min, the Ki (Aurora-C/INCENP [8]) was 1.45 nM and the IC50 [9] was 3.5 nM. The T1/2 [10] was greater than 480 min.
